Source: PMC11084299 (International Journal of Molecular Sciences, 2024)

Assays:
[1] = molecular target: T1, Plasmodium falciparum tyrosyl-tRNA synthetase (PfTyrRS) (Plasmodium falciparum, UniProt Q8IAR7); assay: bio-layer interferometry (Ni-NTA biosensors, immobilized PfTyrRS); supported by ATP hydrolysis inhibition (IC50 […]), TSA and limited proteolysis; type: binding
T1 construct: gene PF3D7_0807900; recombinant PfTyrRS (PF3D7-0807900), C-terminal 10 × His tag, ~47 kDa, homodimer

[2] = molecular target: T2, Homo sapiens tyrosyl-tRNA synthetase (HsTyrRS) (Homo sapiens, UniProt P54577); assay: ATP hydrolysis (consumption) assay, luciferin/luciferase luminescence, purified enzyme; type: biochemical
T2 construct: gene YARS1; recombinant HsTyrRS, C-terminal 10 × His tag, ~64 kDa, homodimer
T2 sequence (P54577 1-528): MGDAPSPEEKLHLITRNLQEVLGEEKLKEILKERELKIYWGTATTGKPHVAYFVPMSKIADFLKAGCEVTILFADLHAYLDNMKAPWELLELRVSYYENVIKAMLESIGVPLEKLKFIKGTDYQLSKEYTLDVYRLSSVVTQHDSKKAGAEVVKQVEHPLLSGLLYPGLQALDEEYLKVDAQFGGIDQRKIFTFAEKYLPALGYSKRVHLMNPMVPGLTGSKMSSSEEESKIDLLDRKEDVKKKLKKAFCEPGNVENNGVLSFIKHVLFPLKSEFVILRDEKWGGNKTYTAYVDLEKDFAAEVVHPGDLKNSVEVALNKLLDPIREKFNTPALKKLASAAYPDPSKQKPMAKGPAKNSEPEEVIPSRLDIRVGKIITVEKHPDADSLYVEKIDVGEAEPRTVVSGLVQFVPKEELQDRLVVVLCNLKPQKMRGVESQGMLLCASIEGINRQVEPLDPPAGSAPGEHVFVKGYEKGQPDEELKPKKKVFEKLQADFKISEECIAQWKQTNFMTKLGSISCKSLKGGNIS

[3] = molecular target: the molecule itself; assay: SEC; Superdex 200 Increase 10/300 GL, final purification step; oligomeric state from the apparent molecular weight at the elution volume

Row | Molecule | Kd [1] [µM] | IC50 [2] [µM] | stoichiometry N [3]
1 | O=C(/C=C/c1ccc(O)c(O)c1)c1ccc(O)c(O)c1O [okanin] | 0.29 | 38.2 ± 2.71 | –
2 | Plasmodium falciparum tyrosyl-tRNA synthetase (enzyme, UniProt Q8IAR7 1-373, looked up, Tyrosyl-tRNA synthetase of Plasmodium falciparum, gene ID PF3D7-0807900, synthesized gene in pET28a; about 47 kDa on SDS-PAGE; No tag cleavage is described; The same protein was later captured on Ni-NTA biosensors for BLI with okanin, so the His tag was probably still present in the gel filtration; also called PfTyrRS; PfTysRS; source: E. coli BL21, purified (Ni-NTA, HiTrap Q HP, Superdex 200 …)) METTDTKREEQEIEEKKAQEESKIEDVDKILNDILSISSECIQPDELRVKLLLKRKLICYDGFEPSGRMHIAQGLLKSIIVNKLTSNGCTFIFWIADWFAHLNNKMSGDLKKIKKVGSYFIEVWKSCGMNMENVQFLWASEEINKKPNEYWSLVLDISRSFNINRMKRCLKIMGRSEGEENYCSQILYPCMQCADIFFLNVDICQLGIDQRKVNMLAREYCDIKKIKKKPVILSHGMLPGLLEGQEKMSKSDENSAIFMDDSESDVNRKIKKAYCPPNVIENNPIYAYAKSIIFPSYNEFNLVRKEKNGGDKTYYTLQELEHDYVNGFIHPLDLKDNVAMYINKLLQPVRDHFQNNIEAKNLLNEIKKYKVTK | – | – | 2
3 | Homo sapiens tyrosyl-tRNA synthetase (enzyme, UniProt P54577 1-528, looked up, Tyrosyl-tRNA synthetase, human, in pET28a; about 64 kDa on SDS-PAGE; No tag cleavage is described; also called HsTyrRS; HsTysRS; source: E. coli, purified (Ni column, ion exchange Q HP, size exclusion chromatography)) MGDAPSPEEKLHLITRNLQEVLGEEKLKEILKERELKIYWGTATTGKPHVAYFVPMSKIADFLKAGCEVTILFADLHAYLDNMKAPWELLELRVSYYENVIKAMLESIGVPLEKLKFIKGTDYQLSKEYTLDVYRLSSVVTQHDSKKAGAEVVKQVEHPLLSGLLYPGLQALDEEYLKVDAQFGGIDQRKIFTFAEKYLPALGYSKRVHLMNPMVPGLTGSKMSSSEEESKIDLLDRKEDVKKKLKKAFCEPGNVENNGVLSFIKHVLFPLKSEFVILRDEKWGGNKTYTAYVDLEKDFAAEVVHPGDLKNSVEVALNKLLDPIREKFNTPALKKLASAAYPDPSKQKPMAKGPAKNSEPEEVIPSRLDIRVGKIITVEKHPDADSLYVEKIDVGEAEPRTVVSGLVQFVPKEELQDRLVVVLCNLKPQKMRGVESQGMLLCASIEGINRQVEPLDPPAGSAPGEHVFVKGYEKGQPDEELKPKKKVFEKLQADFKISEECIAQWKQTNFMTKLGSISCKSLKGGNIS | – | – | 2
